Measurements taken from EP0485583B1, “USE OF TETRAHYDROISOQUINOLINE DERIVATIVES FOR PREPARING ANTITUMORAL DRUGS” (ROUSSEL-UCLAF, priority 1990, dated 1991).

These compounds were tested against T1, tyrosinekinase du récepteur de l'EGF (Epidermal Growth Factor) (Homo sapiens, UniProt P00533) (assay: Inhibition of EGF receptor tyrosine kinase (A431 cell membranes, 32P incorporation into poly(Glu, Ala, Tyr 6:3:1))). Settings: A431 cell membranes (ATCC CRL 1555); samples containing substrate poly(Glu, Ala, Tyr 6:3:1) and EGF; 15 minutes at 30°C; dilution series starting at 51 microgrammes/ml; read-out: CI₅₀ (converted).
T1 construct: On utilise des membranes de cellules A431 (ATCC CRL 1555) comme source de récepteurs de l'EGF; host or cells: A431 cell membranes
T1 sequence (P00533 25-1210): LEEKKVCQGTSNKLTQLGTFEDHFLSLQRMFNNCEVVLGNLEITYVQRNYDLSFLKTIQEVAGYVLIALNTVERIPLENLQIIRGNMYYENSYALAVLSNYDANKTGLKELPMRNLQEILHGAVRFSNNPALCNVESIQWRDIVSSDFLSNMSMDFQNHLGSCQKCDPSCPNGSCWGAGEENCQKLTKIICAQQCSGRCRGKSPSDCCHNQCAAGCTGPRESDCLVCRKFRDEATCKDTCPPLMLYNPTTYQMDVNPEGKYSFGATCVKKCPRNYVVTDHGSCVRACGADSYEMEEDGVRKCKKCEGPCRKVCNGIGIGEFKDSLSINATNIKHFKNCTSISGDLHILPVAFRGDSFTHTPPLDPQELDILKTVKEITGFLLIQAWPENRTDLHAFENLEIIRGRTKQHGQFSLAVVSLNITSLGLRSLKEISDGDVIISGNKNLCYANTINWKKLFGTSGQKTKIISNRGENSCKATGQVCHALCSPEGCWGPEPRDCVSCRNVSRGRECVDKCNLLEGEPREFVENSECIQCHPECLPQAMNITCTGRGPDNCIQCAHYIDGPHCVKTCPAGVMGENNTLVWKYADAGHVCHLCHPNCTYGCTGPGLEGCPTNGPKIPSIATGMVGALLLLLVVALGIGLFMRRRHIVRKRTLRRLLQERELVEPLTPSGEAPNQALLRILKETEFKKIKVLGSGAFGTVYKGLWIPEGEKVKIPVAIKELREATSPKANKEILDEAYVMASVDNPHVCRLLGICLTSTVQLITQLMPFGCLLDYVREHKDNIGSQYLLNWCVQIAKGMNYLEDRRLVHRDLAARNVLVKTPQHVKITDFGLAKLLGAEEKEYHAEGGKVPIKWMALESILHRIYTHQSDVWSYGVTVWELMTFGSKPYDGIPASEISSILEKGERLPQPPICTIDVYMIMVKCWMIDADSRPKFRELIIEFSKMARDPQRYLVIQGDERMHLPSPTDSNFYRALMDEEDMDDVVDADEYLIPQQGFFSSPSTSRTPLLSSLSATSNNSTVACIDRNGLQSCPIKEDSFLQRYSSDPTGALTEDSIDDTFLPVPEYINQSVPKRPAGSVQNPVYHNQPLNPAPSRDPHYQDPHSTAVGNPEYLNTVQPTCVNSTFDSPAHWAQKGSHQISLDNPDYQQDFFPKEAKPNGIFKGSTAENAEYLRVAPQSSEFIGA
Type: biochemical
Description: Mesure de l'inhibition de la tyrosinekinase du récepteur de l'EGF (Epidermal Growth Factor).
Cette lignée cellulaire exprime à sa surface un grand nombre de récepteur de l'EGF qui possèdent une activité tyrosinekinase.
Ces cellules sont préincubées avec ou sans EGF (1000 nM) pendant 15 minutes et ajoutées au tampon HEPES (acide N-2-hydroxyéthyl-piperazine N'-2-éthanesulfonique) correspondant (avec ou sans EGP) et contenant des ions Mg²⁺ (10 mM) et Mn²⁺ (2 mM) 0,2 % de triton X-100, de l'orthovanadate de sodium (20 micromoles) et l'inhibiteur.
Des échantillons contenant ou ne contenant pas le substrat poly(Glu, Ala, Tyr 6 : 3 : 1) sont préparés. On initie la réaction par addition de [gamma³²P] ATP (32 micromoles). Après incubation pendant 15 minutes à 30°C les échantillons sont précipités à l'aide d'acide […] à 10 %, filtrés sur membrane Millipore ® et le ³²P incorporé est mesuré avec un compteur de scintillation liquide.

Compared with `Oc1ccc(CC2NCCc3cc(O)c(O)cc32)cc1O` (stereo not drawn) [Produit A, 1-[(3,4-dihydroxyphényl)méthyl] 1,2,3,4-tétrahydro isoquinoléïne 6,7-diol], `Oc1ccc2[nH]c3c(c2c1)CCNC3Cc1ccc(O)c(O)c1` (stereo not drawn) [Produit B, 1,2-benzènediol 4-(2,3,4,9-tétrahydro 6-hydroxy-1H-pyrido[3,4-b]indol 1-yl) méthyl] is 2.1-fold higher in IC50: 3.83 µM for the first, 8.06 µM for the second.

`Oc1cc2c(cc1O)CC(Cc1ccccc1)NC2` (stereo not drawn) [Produit de l'exemple 1, Bromhydrate du 3-phénylméthyl 1,2,3,4-tétrahydro, isoquinoléïne 6,7-diol] was tested, and the IC50 was 13.3 µM.
